Assay [1] relates to type III collagen generation in primary human dermal fibroblasts. Put plainly: Type III collagen generation in primary human dermal fibroblasts, ELISA of culture supernatant. Conditions: for Relative expression level of type III collagen: N=3, vs blank control 100.00%. In kind it is cell-based. The procedure:
A sample solution was prepared by dissolving ergothioneine solid powder in a basic culture medium, and the concentration was adjusted to 0.001 wt %.
When the in vitro cultured fibroblasts reached 80-90% confluence, they were digested with trypsin and inoculated into 96-well plates. After 48 hours of monolayer culture in a 96-well plate, cells were treated with the ergothioneine sample prepared in step (1) (N=3), with a treatment group comprising 100 ng/mL IGF-1 was set as the positive control. After 48 hours, the cell culture supernatant was taken for ELISA assay of type III collagen, and the type III collagen content of the measured sample group was statistically compared with that of the blank control group to evaluate the effect of ergothioneine on the generation of type III collagen.
All results were presented as Mean±SD, and differences in measured data were compared using an unpaired t-test. P-value<0.05 is considered statistically significant.
Background: An ELISA detects its analyte on a solid surface through an enzyme-linked reagent.

In assay [2] the test system is type III collagen generation in human fibroblast (HFF). The assay can be described thus: Type III collagen content by human collagen III ELISA in human fibroblast (HFF). Conditions: 0.2 wt % ergothioneine, 72 hours. The format is cell-based. As to the method:
Human fibroblast (HFF) in logarithmic growth phase were collected, discarding the culture medium, washing them once with PBS, adding 0.25 wt % trypsin, incubating in a cell culture incubator for 1 minute, and then terminating digestion of the culture medium. The culture medium was centrifuged at 1000 rpm for 3 minutes, and the cells were resuspended in complete DMEM medium and counted. Human fibroblast (HFF) were inoculated into 12-well plates at a density of 3×10^5 cells/ml, with 1 ml/well. After incubation in an incubator at 37° C. and 5% CO2 for 24 hours, the culture medium was removed and the cells were washed with PBS.
The cells washed in step 1 were divided into two groups, namely a blank control group and an ergothioneine group, with 3 replicates in each group. Among them, the blank control group: 1 ml of serum-free culture medium; the ergothioneine group: 1 ml of serum-free culture medium containing 0.2 wt % ergothioneine.
After thoroughly mixing, cells in the above groups were placed in an incubator and cultured for another 72 hours.
Phase contrast microscopy was used to observe cell growth, morphology, and integrity of the cell monolayer, and changes in cell morphology and growth were recorded. The content of type III collagen was determined by using the human collagen III ELISA kit.
Type III collagen promotion rate was calculated as: […]

On to `C[N+](C)(C)[C@@H](Cc1c[nH]c(=S)[nH]1)C(=O)[O-]` [Ergothioneine, ergothioneine], for which the “effect on generation of type III collagen (in words)” value is “significantly promotes the generation of type III collagen” in assay [1] (ergothioneine 0.001%, 48 hours, P<0.05) and “can significantly promote the generation of type III collagen” in assay [2] (compared with blank control). In addition, in assay [1] (ergothioneine 0.001 wt %, 48 hours, SD 0.07, P 0.0360), the “Relative expression level of type III collagen” value was determined as 117.8%. The activity at 0.2 wt % in assay [2] (Homo sapiens, Fibroblast, serum-free medium, 3 replicates, vs blank control 100.0 ± 12.3, ** P < 0.01, read-out: Relative expression level of type III collagen (%)) amounted to 148 ± 20.1%. The activation at 0.2 wt % in assay [2] (Homo sapiens, Fibroblast, serum-free medium, 3 replicates, vs blank control, read-out: Type III collagen promotion rate (%)) is 48.3 ± 20.1%.

For “IGF-1: 100 ng/mL IGF-1 was set as the positive control”, in assay [1] (100 ng/mL IGF-1, 48 hours, P<0.05), the “effect on synthesis of type III collagen in fibroblasts (in words)” value is “significantly promotes the synthesis of type III collagen in fibroblasts”. Besides, in assay [1] (positive control 100 ng/mL IGF-1, 48 hours, SD 0.05, P 0.0103), the “Relative expression level of type III collagen” value was determined as 129.3%.
